Columns and labels:
[1] = target: pure guinea pig sigma-1 receptor (Cavia porcellus, UniProt Q60492); test: Competitive displacement of [3H]-; assay type: binding
[2] = target: T1, α-1A (α-adrenergic receptor subtype 1A) (Homo sapiens, UniProt P35348); test: NIMH PDSP secondary binding assay
T1 sequence (P35348 1-466): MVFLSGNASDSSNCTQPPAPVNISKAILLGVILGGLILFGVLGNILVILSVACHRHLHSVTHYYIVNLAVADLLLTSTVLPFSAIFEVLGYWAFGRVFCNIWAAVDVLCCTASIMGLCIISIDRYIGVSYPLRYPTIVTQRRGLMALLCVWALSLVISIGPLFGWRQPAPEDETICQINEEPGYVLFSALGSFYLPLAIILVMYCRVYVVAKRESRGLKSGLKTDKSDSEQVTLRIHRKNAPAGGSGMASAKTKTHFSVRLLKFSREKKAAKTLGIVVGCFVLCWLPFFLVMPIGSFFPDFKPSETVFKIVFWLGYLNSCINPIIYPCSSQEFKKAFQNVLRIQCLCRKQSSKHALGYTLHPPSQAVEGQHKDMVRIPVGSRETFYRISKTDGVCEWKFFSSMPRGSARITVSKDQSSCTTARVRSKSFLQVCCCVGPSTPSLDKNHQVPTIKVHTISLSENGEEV

[3] = target: β-2 (β-adrenergic receptor subtype 2) (Homo sapiens, UniProt P07550); test: NIMH PDSP secondary binding assay
Sequence of β-2 (β-adrenergic receptor subtype 2) (P07550 whole entry): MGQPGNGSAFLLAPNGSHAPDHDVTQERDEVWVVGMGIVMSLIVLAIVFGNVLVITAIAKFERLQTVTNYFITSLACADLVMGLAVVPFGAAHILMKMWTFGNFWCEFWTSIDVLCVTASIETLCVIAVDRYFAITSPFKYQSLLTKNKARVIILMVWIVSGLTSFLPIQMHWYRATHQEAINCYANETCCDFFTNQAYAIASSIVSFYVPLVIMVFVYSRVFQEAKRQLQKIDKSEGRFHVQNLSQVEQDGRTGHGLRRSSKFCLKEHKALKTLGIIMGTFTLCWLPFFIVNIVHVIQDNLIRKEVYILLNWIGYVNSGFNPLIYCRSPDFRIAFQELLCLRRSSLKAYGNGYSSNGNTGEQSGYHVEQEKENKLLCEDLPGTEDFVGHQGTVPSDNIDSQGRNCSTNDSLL

[4] = target: H2 (histamine receptor type 2) (Homo sapiens, UniProt P25021); test: NIMH PDSP secondary binding assay
Sequence of H2 (histamine receptor type 2) (P25021 whole entry): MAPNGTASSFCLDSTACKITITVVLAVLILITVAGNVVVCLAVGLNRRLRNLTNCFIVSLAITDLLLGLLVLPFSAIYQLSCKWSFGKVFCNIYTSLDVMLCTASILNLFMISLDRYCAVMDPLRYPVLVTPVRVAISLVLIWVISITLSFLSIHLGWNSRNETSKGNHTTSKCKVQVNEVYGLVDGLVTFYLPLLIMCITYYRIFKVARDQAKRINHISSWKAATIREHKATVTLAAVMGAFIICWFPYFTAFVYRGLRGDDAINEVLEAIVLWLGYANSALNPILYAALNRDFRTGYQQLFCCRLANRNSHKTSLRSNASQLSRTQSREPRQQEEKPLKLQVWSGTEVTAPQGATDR

[5] = target: M2 (muscarinic acetylcholine receptor type 2) (Homo sapiens, UniProt P08172); test: NIMH PDSP secondary binding assay
Sequence of M2 (muscarinic acetylcholine receptor type 2) (P08172 whole entry): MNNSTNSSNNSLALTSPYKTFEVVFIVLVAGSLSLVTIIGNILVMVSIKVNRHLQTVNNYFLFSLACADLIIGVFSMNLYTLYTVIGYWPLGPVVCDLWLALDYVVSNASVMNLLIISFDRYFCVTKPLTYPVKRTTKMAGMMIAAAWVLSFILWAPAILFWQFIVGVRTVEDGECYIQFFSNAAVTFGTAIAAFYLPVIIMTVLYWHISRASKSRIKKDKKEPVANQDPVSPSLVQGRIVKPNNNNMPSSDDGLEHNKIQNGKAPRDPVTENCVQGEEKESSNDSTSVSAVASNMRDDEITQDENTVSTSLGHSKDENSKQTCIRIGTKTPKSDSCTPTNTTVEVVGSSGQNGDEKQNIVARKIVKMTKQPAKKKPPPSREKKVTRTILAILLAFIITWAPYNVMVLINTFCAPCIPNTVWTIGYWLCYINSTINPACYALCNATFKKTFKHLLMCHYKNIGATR

[6] = target: M3 (muscarinic acetylcholine receptor type 3) (Homo sapiens, UniProt P20309); test: NIMH PDSP secondary binding assay
Sequence of M3 (muscarinic acetylcholine receptor type 3) (P20309 whole entry): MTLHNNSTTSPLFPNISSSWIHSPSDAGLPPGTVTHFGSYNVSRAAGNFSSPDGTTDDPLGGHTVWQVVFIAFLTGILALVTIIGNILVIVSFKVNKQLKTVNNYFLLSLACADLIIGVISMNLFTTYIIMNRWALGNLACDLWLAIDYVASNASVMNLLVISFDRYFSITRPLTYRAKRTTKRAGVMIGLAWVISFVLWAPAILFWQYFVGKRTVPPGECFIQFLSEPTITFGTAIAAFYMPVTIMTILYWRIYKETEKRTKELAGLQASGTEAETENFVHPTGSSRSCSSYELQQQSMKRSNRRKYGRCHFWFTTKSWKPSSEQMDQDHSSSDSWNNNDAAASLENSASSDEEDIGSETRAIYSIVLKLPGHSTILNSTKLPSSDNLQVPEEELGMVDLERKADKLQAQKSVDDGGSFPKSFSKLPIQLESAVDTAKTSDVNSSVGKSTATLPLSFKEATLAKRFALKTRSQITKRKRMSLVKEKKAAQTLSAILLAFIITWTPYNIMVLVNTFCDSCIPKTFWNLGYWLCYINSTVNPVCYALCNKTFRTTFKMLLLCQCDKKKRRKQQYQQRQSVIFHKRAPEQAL

[7] = target: M4 (muscarinic acetylcholine receptor type 4) (Homo sapiens, UniProt P08173); test: NIMH PDSP secondary binding assay
Sequence of M4 (muscarinic acetylcholine receptor type 4) (P08173 whole entry): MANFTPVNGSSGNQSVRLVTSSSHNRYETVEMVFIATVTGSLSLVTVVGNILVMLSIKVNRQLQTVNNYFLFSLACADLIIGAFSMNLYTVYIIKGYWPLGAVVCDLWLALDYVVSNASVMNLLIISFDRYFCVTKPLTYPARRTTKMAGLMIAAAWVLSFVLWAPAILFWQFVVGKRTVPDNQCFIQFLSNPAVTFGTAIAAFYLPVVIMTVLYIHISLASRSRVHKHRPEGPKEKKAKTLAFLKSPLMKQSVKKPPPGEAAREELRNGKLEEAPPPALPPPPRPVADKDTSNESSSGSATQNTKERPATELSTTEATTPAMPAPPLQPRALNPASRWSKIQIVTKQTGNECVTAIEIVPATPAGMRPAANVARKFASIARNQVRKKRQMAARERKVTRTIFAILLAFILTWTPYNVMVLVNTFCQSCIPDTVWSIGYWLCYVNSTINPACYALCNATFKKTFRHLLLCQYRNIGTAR

Kv1.4 potassium channel = Kv1.4 potassium channel (Rattus norvegicus, UniProt P15385+Q9R0C9); test: Whole cell patch clamp, HEK-293 cells co-expressing Kv1.4 and sigma-1 receptor; assay type: cell-based
Sequence of Kv1.4 potassium channel (P15385 whole entry): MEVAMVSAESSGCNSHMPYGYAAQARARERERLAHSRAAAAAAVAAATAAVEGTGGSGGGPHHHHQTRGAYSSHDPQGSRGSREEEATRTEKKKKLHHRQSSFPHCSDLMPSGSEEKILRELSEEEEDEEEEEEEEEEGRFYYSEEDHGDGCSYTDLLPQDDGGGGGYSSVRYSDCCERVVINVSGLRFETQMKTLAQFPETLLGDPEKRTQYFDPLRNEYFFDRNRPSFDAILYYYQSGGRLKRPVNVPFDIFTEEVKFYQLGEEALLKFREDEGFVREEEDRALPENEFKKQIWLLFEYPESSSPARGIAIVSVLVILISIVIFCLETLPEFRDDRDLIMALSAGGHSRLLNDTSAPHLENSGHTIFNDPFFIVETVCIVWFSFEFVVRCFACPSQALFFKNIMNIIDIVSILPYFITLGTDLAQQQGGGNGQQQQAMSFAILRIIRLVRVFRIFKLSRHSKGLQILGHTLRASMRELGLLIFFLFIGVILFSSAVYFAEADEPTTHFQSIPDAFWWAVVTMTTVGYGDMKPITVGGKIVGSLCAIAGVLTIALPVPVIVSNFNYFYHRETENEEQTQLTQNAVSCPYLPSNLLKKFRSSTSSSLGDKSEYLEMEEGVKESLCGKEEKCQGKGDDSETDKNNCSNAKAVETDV
Sequence of Kv1.4 potassium channel (Q9R0C9 whole entry): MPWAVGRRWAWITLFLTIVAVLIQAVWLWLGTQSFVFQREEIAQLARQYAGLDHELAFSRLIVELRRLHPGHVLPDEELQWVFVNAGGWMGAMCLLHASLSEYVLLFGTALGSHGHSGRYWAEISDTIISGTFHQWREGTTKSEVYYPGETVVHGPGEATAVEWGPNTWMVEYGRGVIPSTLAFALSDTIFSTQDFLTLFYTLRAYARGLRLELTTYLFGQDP

MCF-10A = test: Multiplex cytotoxicity assay; assay type: cell-based; conditions: Homo sapiens, read-out: IC50 MCF-10A
HCT-15 = test: Multiplex cytotoxicity assay; assay type: cell-based; conditions: Homo sapiens, HCT-15, read-out: IC50 HCT-15
caspases 3/7, 8, and 9 = test: Caspase activation potential; assay type: cell-based; conditions: data not shown
[8] = target: D4 (dopamine receptor type 4) (Homo sapiens, UniProt P21917); test: NIMH PDSP secondary binding assay
Sequence of D4 (dopamine receptor type 4) (P21917 whole entry): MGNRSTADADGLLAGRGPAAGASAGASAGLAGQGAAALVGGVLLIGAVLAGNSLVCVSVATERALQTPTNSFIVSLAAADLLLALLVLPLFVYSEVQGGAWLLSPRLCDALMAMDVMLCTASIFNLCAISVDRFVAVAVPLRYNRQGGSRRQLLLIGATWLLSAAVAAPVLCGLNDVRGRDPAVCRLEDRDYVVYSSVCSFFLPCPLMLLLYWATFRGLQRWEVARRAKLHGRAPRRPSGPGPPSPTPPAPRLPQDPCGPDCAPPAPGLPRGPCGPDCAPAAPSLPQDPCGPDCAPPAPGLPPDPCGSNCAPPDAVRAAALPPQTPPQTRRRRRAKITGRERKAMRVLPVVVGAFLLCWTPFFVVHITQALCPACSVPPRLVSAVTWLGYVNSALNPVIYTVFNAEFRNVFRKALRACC

[9] = target: sigma-1 receptor (sigma-1 sites) (Cavia porcellus, UniProt Q60492); test: Competitive displacement of [3H]-; assay type: binding, guinea pig
Sequence of sigma-1 receptor (sigma-1 sites) (Q60492 whole entry): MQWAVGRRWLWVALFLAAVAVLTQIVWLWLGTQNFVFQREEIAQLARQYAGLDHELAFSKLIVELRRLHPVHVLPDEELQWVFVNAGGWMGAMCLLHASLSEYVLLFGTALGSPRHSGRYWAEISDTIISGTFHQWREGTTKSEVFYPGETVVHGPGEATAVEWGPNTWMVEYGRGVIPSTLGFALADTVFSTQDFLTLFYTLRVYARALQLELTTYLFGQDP

Sequence of pure guinea pig sigma-1 receptor (Q60492 whole entry): as above

Row | Compound | Ki [1] | Ki [2] | Ki [3] | Ki [4] | Ki [5] | Ki [6] | Ki [7] | IC50 (Kv1.4 potassium channel) | IC50 (MCF-10A) | IC50 (HCT-15) | activation of caspases 3/7, 8, and 9 (caspases 3/7, 8, and 9) | Ki [8] | Ki [9]
1 | CCCCCCCNCCCc1ccccc1 [2a, N-(3-Phenylpropyl)heptan-1-amine] | 0.018 ± 0.014 µM | > 10 µM | > 10 µM | > 10 µM | > 10 µM | > 10 µM | > 10 µM | 10 µM | 70 ± 5 µM | 18 ± 12 µM | did not activate |  | 
2 | CCCCCCCCCCCCNCCCc1ccccc1 [3a, N-(3-Phenylpropyl)dodecan-1-amine] |  | > 10 µM | > 10 µM | > 10 µM | > 10 µM | > 10 µM | > 10 µM |  | 53 ± 18 µM | > 100 µM | did not activate | > 10 µM | 
3 | CCCCCCCCCCCCNCCCc1ccc([N+](=O)[O-])cc1 [3b, N-(3-(4-Nitrophenyl)propyl)dodecan-1-amine] |  | > 10 µM | > 10 µM |  |  |  |  |  | 15 ± 1 µM | 25 µM | did not activate |  | 5.1 ± 0.2 µM

— article PMC3234165 (Biochemistry, 2011)
